The record followed here is article PMC6104490, “NADPH–Cytochrome P450 Reductase Mediates the Resistance of Aphis (Toxoptera) citricidus (Kirkaldy) to Abamectin” (Frontiers in Physiology, 2018).

The target of the assay is T1, AcCPR (Aphis citricidus, UniProt A0A346QRP0).
T1 construct: full-length ORF in pFastBac HT A, 6xHis-tagged, Sf9 cell extract (soluble supernatant; called microsomes in results)
T1 sequence (A0A346QRP0 1-681): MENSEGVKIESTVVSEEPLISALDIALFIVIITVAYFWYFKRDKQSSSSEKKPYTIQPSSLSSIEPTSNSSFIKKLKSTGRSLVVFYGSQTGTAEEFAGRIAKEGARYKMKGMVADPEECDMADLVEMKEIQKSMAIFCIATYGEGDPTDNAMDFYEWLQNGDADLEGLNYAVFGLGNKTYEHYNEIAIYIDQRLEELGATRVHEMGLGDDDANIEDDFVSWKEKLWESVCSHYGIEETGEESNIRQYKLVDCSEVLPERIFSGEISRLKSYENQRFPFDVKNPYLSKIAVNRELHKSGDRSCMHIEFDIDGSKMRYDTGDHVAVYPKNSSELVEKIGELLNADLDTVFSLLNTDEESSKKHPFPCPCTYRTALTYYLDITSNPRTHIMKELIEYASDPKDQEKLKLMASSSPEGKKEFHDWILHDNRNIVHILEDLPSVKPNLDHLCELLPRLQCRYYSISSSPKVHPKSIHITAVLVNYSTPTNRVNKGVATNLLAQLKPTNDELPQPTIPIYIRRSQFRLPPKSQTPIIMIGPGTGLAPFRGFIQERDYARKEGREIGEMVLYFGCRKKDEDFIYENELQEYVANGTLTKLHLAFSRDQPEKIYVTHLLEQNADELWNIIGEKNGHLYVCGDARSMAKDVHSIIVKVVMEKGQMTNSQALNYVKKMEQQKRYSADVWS
In words: NADPH-cytochrome c reduction, absorbance at […] nm, Sf9 cell extract. It is filed as biochemical. The settings on record: cytochrome c as electron acceptor, 0.3 M potassium phosphate pH 7.7; NADPH 2 uL of 10 mM stock in 200 uL.

Turning to `NC(=O)C1=CN([C@@H]2O[C@H](COP(=O)(O)OP(=O)(O)OC[C@H]3O[C@@H](n4cnc5c(N)ncnc54)[C@H](OP(=O)(O)O)[C@@H]3O)[C@@H](O)[C@H]2O)C=CC1` [NADPH], the “NADPH-cytochrome c reduction, absorbance at 550 nm, Sf9 cell extract” value is on record as “Heterologously expressed AcCPR activity was determined by spectrophotometric measurement of the activity of NADPH-cytochrome-c reduction”.
